Entries after “also recorded” stand apart in the source; their conditions may differ.
Target: concanavalin A (ConA) (Canavalia ensiformis, UniProt P02866)
Experiment: Surface plasmon resonance (Biacore T100) binding of glycosylated OCN to immobilised lectin
Conditions: injected at the highest mass concentration of [2l] shown (2.0 mg 1-1)
Experimental: ConA was covalently attached to the Au-coated sensor chip's dextran layer via conventional amide coupling, and binding between ConA and the injected analyte was measured as a change in the refractive index (RI) and expressed in response units (RU). […] (See, e.g., Kamiya, N., et al., J. Am. Chem. Soc. 129, 3816-3817 (2007), the disclosure of which is incorporated herein by reference.)

SMILES: O=C[C@H](O)[C@@H](O)[C@H](O)[C@H](O)CO [D-glucose]
- binding response to ConA (controls): minimal to no binding; also recorded: minimal binding

Source: patent US11479470B2, “Three-dimensional boron-rich clusters” (The Regents of the University of California, priority 2016, dated 2022)
